In US20170050957A1, “4-AMINO-6-(HETEROCYCLIC)PICOLINATES AND 6-AMINO-2-(HETEROCYCLIC)PYRIMIDINE-4-CARBOXYLATES AND THEIR USE AS HERBICIDES” (Dow AgroSciences LLC, priority 2013, published 2017):
Read-outs that look alike come from different tables or passages of the source.

How the values were obtained:
[1] = system: Key Grass and Sedge Weeds as well as Grass Crops; assay: Post-emergent Test II herbicidal activity (Table 16); format: in vivo; conditions: post-emergence, 336 h, 14 d; for pest or weed control at 35 g/ha: 35 g ai/ha; for pest or weed control at 70 g/ha: 70 g ai/ha; for pest or weed control at 140 g/ha: 140 g ai/ha
How it was run: (§1)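 Herbicidal effect scored as percent visual injury, 14 d after post-emergent application. Spray solutions contained acetone, DMSO, isopropyl alcohol, crop oil concentrate and surfactant, applied at 187 L/ha to young plants (1-2 true leaves).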

[2] = system: Key Broadleaf Weed and Crop Species; assay: Post-emergent Test II herbicidal activity (Table 15); format: in vivo; conditions: post-emergence, 336 h, 14 d; for pest or weed control at 35 g/ha: 35 g ai/ha; for pest or weed control at 70 g/ha: 70 g ai/ha; for pest or weed control at 140 g/ha: 140 g ai/ha
How it was run: as §1

[3] = Cyperus esculentus, yellow nutsedge (Cyperus esculentus), read-out: Visual Growth Reduction (%) 14 Days After Application, CYPES
[4] = Echinochloa crus-galli, barnyardgrass (Echinochloa crus-galli), read-out: Visual Growth Reduction (%) 14 Days After Application, ECHCG
[5] = Oryza sativa, rice (Oryza sativa), read-out: Visual Growth Reduction (%) 14 Days After Application, ORYSA
[6] = Setaria faberi, giant foxtail (Setaria faberi), read-out: Visual Growth Reduction (%) 14 Days After Application, SETFA
[7] = Triticum aestivum, wheat, spring (Triticum aestivum), read-out: Visual Growth Reduction (%) 14 Days After Application, TRZAS
[8] = Zea mays, maize, corn (Zea mays), read-out: Visual Growth Reduction (%) 14 Days After Application, ZEAMX
[9] = Abutilon theophrasti, velvetleaf (Abutilon theophrasti), read-out: Visual Growth Reduction (%) 14 Days After Application, ABUTH
[10] = Amaranthus retroflexus, redroot pigweed (Amaranthus retroflexus), read-out: Visual Growth Reduction (%) 14 Days After Application, AMARE
[11] = Brassica napus, oilseed rape, canola (Brassica napus), read-out: Visual Growth Reduction (%) 14 Days After Application, BRSNN
[12] = Chenopodium album, lambsquarters (Chenopodium album), read-out: Visual Growth Reduction (%) 14 Days After Application, CHEAL
[13] = Euphorbia heterophylla, wild poinsettia (Euphorbia heterophylla), read-out: Visual Growth Reduction (%) 14 Days After Application, EPHHL
[14] = Helianthus annuus, sunflower (Helianthus annuus), read-out: Visual Growth Reduction (%) 14 Days After Application, HELAN

In the case of COC(=O)c1nc(-c2cc3ccoc3cc2F)cc(N)c1Cl [Compound 2.04], the pest or weed control at 35 g/ha [1, 3] is reported as 0 to 29%, the pest or weed control at 70 g/ha [1, 3] is reported as 0 to 29% and the pest or weed control at 140 g/ha [1, 3] is reported as 30 to 44%. The pest or weed control at 35 g/ha [1, 4] was 60 to 74%, the pest or weed control at 70 g/ha [1, 4] was 95 to 100% and the pest or weed control at 140 g/ha [1, 4] was 95 to 100%. For the same compound, the pest or weed control at 35 g/ha [1, 5] was 0 to 29%, the pest or weed control at 70 g/ha [1, 5] was 0 to 29% and the pest or weed control at 140 g/ha [1, 5] was 0 to 29%. It also gave a pest or weed control at 35 g/ha [1, 6] of 60 to 74%, a pest or weed control at 70 g/ha [1, 6] of 75 to 84% and a pest or weed control at 140 g/ha [1, 6] of 85 to 94%. For the same compound, the pest or weed control at 35 g/ha [1, 7] was 0 to 29%, the pest or weed control at 70 g/ha [1, 7] was 30 to 44% and the pest or weed control at 140 g/ha [1, 7] was 45 to 59%. It also gave a pest or weed control at 35 g/ha [1, 8] of 60 to 74%, a pest or weed control at 70 g/ha [1, 8] of 75 to 84% and a pest or weed control at 140 g/ha [1, 8] of 85 to 94%. It also gave a pest or weed control at 35 g/ha [2, 9] of 75 to 84%, a pest or weed control at 70 g/ha [2, 9] of 85 to 94% and a pest or weed control at 140 g/ha [2, 9] of 95 to 100%. For the same compound, the pest or weed control at 35 g/ha [2, 10] was 95 to 100%, the pest or weed control at 70 g/ha [2, 10] was 95 to 100% and the pest or weed control at 140 g/ha [2, 10] was 95 to 100%. For the same compound, the pest or weed control at 35 g/ha [2, 11] was 0 to 29%, the pest or weed control at 70 g/ha [2, 11] was 0 to 29% and the pest or weed control at 140 g/ha [2, 11] was 30 to 44%. The pest or weed control at 35 g/ha [2, 12] was 95 to 100%, the pest or weed control at 70 g/ha [2, 12] was 95 to 100% and the pest or weed control at 140 g/ha [2, 12] was 95 to 100%. The pest or weed control at 35 g/ha [2, 13] was 95 to 100%, the pest or weed control at 70 g/ha [2, 13] was 95 to 100% and the pest or weed control at 140 g/ha [2, 13] was 95 to 100%. The pest or weed control at 35 g/ha [2, 14] was 0 to 29%, the pest or weed control at 70 g/ha [2, 14] was 0 to 29% and the pest or weed control at 140 g/ha [2, 14] was 30 to 44%. The melting point was 98 °C.

For COC(=O)c1nc(-c2cc3ccoc3cc2F)nc(N)c1OC [Compound 2.05], the pest or weed control at 35 g/ha [1, 3] was 0 to 29%, the pest or weed control at 70 g/ha [1, 3] was 0 to 29% and the pest or weed control at 140 g/ha [1, 3] was 0 to 29%. It also gave a pest or weed control at 35 g/ha [1, 4] of 0 to 29%, a pest or weed control at 70 g/ha [1, 4] of 0 to 29% and a pest or weed control at 140 g/ha [1, 4] of 0 to 29%. For the same compound, the pest or weed control at 35 g/ha [1, 5] was 0 to 29%, the pest or weed control at 70 g/ha [1, 5] was 0 to 29% and the pest or weed control at 140 g/ha [1, 5] was 0 to 29%. For the same compound, the pest or weed control at 35 g/ha [1, 6] was 0 to 29%, the pest or weed control at 70 g/ha [1, 6] was 0 to 29% and the pest or weed control at 140 g/ha [1, 6] was 0 to 29%. The pest or weed control at 35 g/ha [1, 7] was 0 to 29%, the pest or weed control at 70 g/ha [1, 7] was 0 to 29% and the pest or weed control at 140 g/ha [1, 7] was 0 to 29%. The pest or weed control at 35 g/ha [1, 8] was 0 to 29%, the pest or weed control at 70 g/ha [1, 8] was 0 to 29% and the pest or weed control at 140 g/ha [1, 8] was 0 to 29%. For the same compound, the pest or weed control at 35 g/ha [2, 9] was 0 to 29%, the pest or weed control at 70 g/ha [2, 9] was 0 to 29% and the pest or weed control at 140 g/ha [2, 9] was 0 to 29%. For the same compound, the pest or weed control at 35 g/ha [2, 10] was 85 to 94%, the pest or weed control at 70 g/ha [2, 10] was 75 to 84% and the pest or weed control at 140 g/ha [2, 10] was 95 to 100%. It also gave a pest or weed control at 35 g/ha [2, 11] of 0 to 29%, a pest or weed control at 70 g/ha [2, 11] of 0 to 29% and a pest or weed control at 140 g/ha [2, 11] of 0 to 29%. For the same compound, the pest or weed control at 35 g/ha [2, 12] was 0 to 29%, the pest or weed control at 70 g/ha [2, 12] was 0 to 29% and the pest or weed control at 140 g/ha [2, 12] was 45 to 59%. For the same compound, the pest or weed control at 35 g/ha [2, 13] was 30 to 44%, the pest or weed control at 70 g/ha [2, 13] was 30 to 44% and the pest or weed control at 140 g/ha [2, 13] was 45 to 59%. For the same compound, the pest or weed control at 35 g/ha [2, 14] was 0 to 29%, the pest or weed control at 70 g/ha [2, 14] was 0 to 29% and the pest or weed control at 140 g/ha [2, 14] was 30 to 44%. It also gave a melting point of 160 °C.
